According to patent publication US7811577B2 (priority 2004, dated 2010):
Entries after “also recorded” stand apart in the source; their conditions may differ. Read-outs that look alike come from different tables or passages of the source. Numbered stars: 1 amine (or outer) side, 2 acyl side, 3 side chain; on linkers, the order of the positions; unused ones are H or OH. Bridge positions count the residues as written; N and C are the ends. Square brackets hold non-standard residues; d marks the D form. Ends that are not written are not given here. I, II: the chains in the order shown. * marks the point of attachment. Biotin = O=C1N[C@H]2[C@H](CS[C@H]2CCCCC(=O)*)N1; Ttds = O=C(CCC(=O)[*:2])NCCCOCCOCCOCCCN[*:1]; Acm = CC(=O)NC*

Legend:
HIV-1 HXB2 = conditions: for anti-viral activity against HIV-1 HXB2, in words: single-cycle/single cell infectivity assay
[1] = system: D5 IgG binding to biotinylated 5-Helix; assay: Biotinylated 5-Helix/D5 IgG interaction (competition) assay, AlphaScreen
Description: The instrument records these emissions.
(§1) This test determines whether the covalently-stabilized, homotrimeric or heterotrimeric CC-chimeric N-peptides can preserve the structure of the internal, N-helix coiled-coil of gp41.

[2] = Thermal denaturation (CD) in 2M guanidinium chloride; conditions: for melting temperature / midpoint of thermal denaturation: in the presence of 2M guanidinium chloride
Description: The stability of SZN17 was compared with that of IZN17 using thermal denaturation analysis performed in the presence of 2M guanidine hydrochloride (GdnHCl).

HIV-1 89.6 = type: cell-based
[3] = Circular dichroism spectroscopy and thermal denaturation without denaturant; type: physicochemical; conditions: for melting point (thermal denaturation): no denaturant
Description: The IZ-like scaffold in CCI10N17 (SEQ ID NO:20) comprises only the ten COOH-terminal residues of the “IZ” scaffold, with addition of the covalent trimerizing unit (CCGG (SEQ ID NO:28)) at the NH2-terminus of the peptide. The non-covalently-stabilized CCI10N17 coiled-coil (i.e., the coiled-coil formed under non-oxidizing conditions) was dissolved at neutral pH, and its secondary structure content was determined by circular dichroism spectroscopy (CD).
In order to understand the role of the covalent trimerizing unit (CCGG; SEQ ID NO:28), the CCI10N17 peptide was dissolved to permit air oxidation under the same conditions as previously shown for CCIZN17, to generate covalently-stabilized coiled-coil molecules, (CCI10N17)3. […] The trimer (CCI10N17)3 was analyzed by CD and denaturation studies for analysis of both its secondary structure content and stability. The helical content of this molecule was only 85% with a melting curve showing a low cooperatively profile and a low melting point of about 60° C.

[4] = system: D5 IgG binding to biotinylated-IZN17; assay: Biotinylated-IZN17/D5 IgG interaction assay, AlphaScreen
Description: The instrument records these emissions.
as §1

[5] = system: D5 IgG / biotinylated-IZN17; assay: IC50 (nM)
Description: Table printed on a drawing sheet, FIG. 6
Head of the field: IC50 (nM)
Wildtype IZN17 peptide was included as a positive control, previously shown to inhibit D5 binding in this assay.
First copying reader's note: The table stands beside a dose-response plot (Average Alpha Counts vs [Peptide]), which is not copied.

[6] = system: D5-IgG binding to biotinylated IQN17; assay: Competition of D5-IgG binding to biotinylated IQN17, AlphaScreen
[7] = non-covalently-stabilized coiled-coil, neutral pH, 15 μM

Molecule: (CCIZN11IZ)3: covalent disulfide trimer of CCIZN11IZ (CCGGIKKEIEAIKKEQEAIKKKIEAIEKLLQLTVWGIKQIKKEIEAI; also: disulfide-linked homotrimer)
- IC50 (HIV-1 HXB2; read-out: IC50 against HIV-1 HXB2, single-cycle infectivity assay, HXB2): 0.3 nM
- D5 IgG binding in bio-5-Helix/D5 IgG interaction assay, in words [1]: binds D5 IgG

Molecule: (CCS10N17)3: covalent disulfide trimer of CCS10N17 (CCGGIEKKIEAIEKLLQLTVWGIKQLQARIL; also: disulfide-linked homotrimer)
- anti-viral activity against HIV-1 HXB2, in words (HIV-1 HXB2): much lower potencies

Molecule: (CCS17N17)3: covalent disulfide trimer of CCS17N17 (CCGGIEKKIEAIEKKIEAIEKLLQLTVWGIKQLQARIL; also: disulfide-linked homotrimer)
- melting temperature / midpoint of thermal denaturation [2]: above 90 °C

Molecule: Ac-IKKEIEAIKKEQEAIKKKIEAIEKLLQLTVWGIKQLQARIL-NH2 [IZN17, reference compound]
- anti-viral activity against HIV isolate 89.6, in words (HIV-1 89.6): completely resistant towards IZN17
- Anti-viral activity, IC50 (HIV-1 89.6; HIV strain 89.6): No
- helical content by circular dichroism [3, 7]: fully helical
- IC50 (HIV-1 HXB2; HXB2): 1.7 nM
- IC50 (HIV-1 BaL; BaL): 3.2 nM
- Tm (2M GdnHCl), midpoint of thermal denaturation [2]: 61.5 °C
- melting temperature / midpoint of thermal denaturation [2]: 61.5 °C

Molecule: Ac-LLQLTVWGIKQLQARILAIKKEIEAIKKEQEAIKKKIEAI-NH2 (C-terminus assumed) [N17IZ]
- IC50 (HIV-1 HXB2; HXB2): 800 nM

Molecule: Biotin-GGIKKEIEAIKKEQEAIKKKIEAIEKEIEAQQHLLQLTVWGIKQLQARIL-NH2 [Biotin-IZN23]
- IC50 (HIV-1 HXB2; HXB2): 2.17 nM

Molecule: CCGGIEKKIEEIEKKIEEIEKKIEEIEKLLQLTVWGIKQLQARIL [CCEZN17]
- anti-viral activity against HIV-1 HXB2, in words (HIV-1 HXB2): lack of anti-viral activity
- D5 IgG binding in bio-IZN17/D5 IgG interaction assay, in words [4]: interact with D5 IgG
- D5 IgG binding in bio-5-Helix/D5 IgG interaction assay, in words [1]: interact with D5 IgG

Molecule: CCGGIKKEIEAIKKEQEAIKKKIEAIEKLLQLTVWGIKALAAAIA [CCIZN17Ala4]
- anti-viral activity against HIV-1 HXB2, in words (HIV-1 HXB2): retain anti-viral activity

Molecule: CCGGIKKKIEAIEKLLQLTVWGIKQLQARIL [CCI10N17]
- helical content by circular dichroism [3, 7]: 61%
- anti-viral activity against HIV-1 HXB2, in words (HIV-1 HXB2): less potent anti-virals

Molecule: I: Ac-CCGGIKKKIEAIEKLLQLTVWGIKQLQARIL-NH2 / II: Ac-CCGGIKKKIEAIEKLLQLTVWGIKQLQARIL-NH2 / III: Ac-CCGGIKKKIEAIEKLLQLTVWGIKQLQARIL-NH2 (disulfide I:1-III:2, I:2-II:2, II:1-III:1; C-terminus assumed) [(CCI10N17)3]
- helical content by circular dichroism [3]: 85%
- melting point (thermal denaturation) [3]: about 60 °C
- melting point (thermal denaturation) ([3]; listed as (CC110N17)3): 60 °C
- fold less potent (IC50) than (CCIZN17)3 (HIV-1 HXB2): approximately 150 fold
- IC50 (HIV-1 HXB2; HXB2): 24 nM
- fold reduction in anti-viral activity relative to IZN17 (HIV-1 HXB2; HXB2): approximately 10 fold
- anti-viral activity against HIV-1 HXB2, in words (HIV-1 HXB2): less potent in anti-viral activity assays
- D5 IgG binding in bio-IZN17/D5 IgG interaction assay, in words [4]: somewhat less effective than 112N7; also recorded: clearly inhibits
- D5 IgG binding in bio-5-Helix/D5 IgG interaction assay, in words [1]: competes for binding of D5 IgG to Biotin-5-Helix

Molecule: IEKKIEAIEKKIEAIEKKIEAIEKLLQLTVWGIKQLQARIL [SZN17]
- IC50 (HIV-1 HXB2; read-out: IC50 in single-cell infectivity assay, against HIV BXB2 (so in the source), unit inferred): 1.5 nM
- melting temperature / midpoint of thermal denaturation [2]: > 90 °C

Molecule: IEKKIEEIEKKIEEIEKKIEEIEKLLQLTVWGIKQLQARIL [EZN17, EZ scaffold fused to N17]
- IC50 [5]: 18.3 nM

Molecule: IEKKIEEIEKKIEEIEKKIEEIEKLLQLTVWGIKQLQARIL [EZN17]
- helical content by circular dichroism [3]: fully helical
- D5 IgG binding in bio-IZN17/D5 IgG interaction assay, in words [4]: strongly binds to D5 IgG; also recorded: interact with D5 IgG; also recorded: affinity comparable to IZN17
- D5 IgG binding in bio-5-Helix/D5 IgG interaction assay, in words [1]: interact with D5 IgG

Molecule: IKKEIEAIKKEQEAIKKKIEAIEKLLQLTVWGIKQLQARIa (Ac-IKKEIEAIKKEQEAIKKKIEAIEKLLQLTVWGIKQLQARIA-NH2; not fully specified (residue 41)) [IZN17A17]
- Tm (2M GdnHCl), midpoint of thermal denaturation [2]: 60.6 °C

Molecule: IKKEIEAIKKEQEAIKKKIEAIEKLLQLTVWGIKQLQAaIL (Ac-IKKEIEAIKKEQEAIKKKIEAIEKLLQLTVWGIKQLQAAIL-NH2; not fully specified (residue 38); printed as IKKEIEAIKKEQEAIKKKIEAIEKLLQLTVWGIKQLQAaIL) [IZN17A15]
- Tm (2M GdnHCl), midpoint of thermal denaturation [2]: 77.2 °C

Molecule: IKKEIEAIKKEQEAIKKKIEAIEKLLQLTVWGIKaLQARIL (Ac-IKKEIEAIKKEQEAIKKKIEAIEKLLQLTVWGIKALQARIL-NH2; not fully specified (residue 35); printed as IKKEIEAIKKEQEAIKKKIEAIEKLLQLTVWGIKaLQARIL) [IZN17A11]
- Tm (2M GdnHCl), midpoint of thermal denaturation [2]: 66.0 °C

Molecule: IKKEIEAIKKEQEAIKKKIEAIEKLLQLTVWGIaQLQARIL (Ac-IKKEIEAIKKEQEAIKKKIEAIEKLLQLTVWGIAQLQARIL-NH2) [IZN17A10]
- Tm (2M GdnHCl), midpoint of thermal denaturation [2]: 68.1 °C
- competition of D5-IgG binding to biotinylated IQN17, in words [6]: completely abolish binding of D5

Molecule: IKKEIEAIKKEQEAIKKKIEAIEKLLQLTVaGIKQLQARIL (Ac-IKKEIEAIKKEQEAIKKKIEAIEKLLQLTVAGIKQLQARIL-NH2) [IZN17A7]
- Tm (2M GdnHCl), midpoint of thermal denaturation [2]: 61.4 °C
- competition of D5-IgG binding to biotinylated IQN17, in words [6]: completely abolish binding of D5

Molecule: IKKEIEAIKKEQEAIKKKIEAIEKLLQLTaWGIKQLQARIL (Ac-IKKEIEAIKKEQEAIKKKIEAIEKLLQLTAWGIKQLQARIL-NH2) [IZN17A6]
- Tm (2M GdnHCl), midpoint of thermal denaturation [2]: 56.4 °C

Molecule: IKKEIEAIKKEQEAIKKKIEAIEKLLQaTVWGIKQLQARIL (Ac-IKKEIEAIKKEQEAIKKKIEAIEKLLQATVWGIKQLQARIL-NH2) [IZN17A4]
- Tm (2M GdnHCl), midpoint of thermal denaturation [2]: 58.2 °C
- competition of D5-IgG binding to biotinylated IQN17, in words [6]: completely abolish binding of D5

Molecule: IKKEIEAIKKEQEAIKKKIEAIEKLLaLTVWGIKQLQARIL (Ac-IKKEIEAIKKEQEAIKKKIEAIEKLLALTVWGIKQLQARIL-NH2) [IZN17A3]
- Tm (2M GdnHCl), midpoint of thermal denaturation [2]: 64.7 °C

Molecule: IKKEIEAIKKEQEAIKKKIEAIEKaLQLTVWGIKQLQARIL (Ac-IKKEIEAIKKEQEAIKKKIEAIEKALQLTVWGIKQLQARIL-NH2) [IZN17A1]
- Tm (2M GdnHCl), midpoint of thermal denaturation [2]: 51.7 °C

Molecule: IKKEIEAIKKEQEATKKKIEAIEKLLQLTVWGIKQLaARIL [IZN17A13]
- Tm (2M GdnHCl), midpoint of thermal denaturation [2]: 71.5 °C

Molecule: IKKKIEAIEKLLQLTVWGIKQLQARILGGCC [I10N17CC]
- anti-viral activity against HIV-1 HXB2, in words (HIV-1 HXB2): less potent anti-virals

Molecule: ac-C(Acm)(thioE10N17)3: one ac-C(Acm)Ttds-CCE10N17 ligated via two thioether bonds to two acetyl-GGGE10N17 chains (peptide 1 {CH2CO}-C(Acm)[Ttds]CCIEEKIEEIEELLQLTVWGIKQLQARIL; peptide 2 Ac-GGGIEEKIEEIEELLQLTVWGIKQLQARIL; thioether I:N-I:3, I:N-I:4; numbers in words are those of the source; also: chain 2 present twice, each copy ligated via thioether to one of the two Cys of chain 1)
- anti-viral activity against HIV-1 HXB2, in words (HIV-1 HXB2): much lower potencies
- melting temperature / midpoint of thermal denaturation [2]: above 90 °C

Molecule: enfuvirtide
- IC50 (HIV-1 89.6; HIV strain 89.6, read-out: Anti-viral activity, IC50): 29 nM
- IC50 (HIV-1 HXB2; read-out: Anti-viral activity, IC50, HIV strain HXB2): 5.3 nM
- IC50 (HIV-1 BaL; read-out: Anti-viral activity, IC50, HIV strain BaL): 2.4 nM

B1: ac-C(Acm)(thioIZN17)3: one ac-C(Acm)Ttds-CCIZN17 chain ligated via two thioether bonds to two acetyl-GGGIZN17 chains (peptide)
peptide 1: CCCGGIKKEIEAIKKEQEAIKKKIEAIEKLLQLTVWGIKQLQARIL
peptide 2: GGGIKKEIEAIKKEQEAIKKKIEAIEKLLQLTVWGIKQLQARIL
- anti-viral activity against HIV-1 HXB2, in words (HIV-1 HXB2): comparable antiviral activity to (CCIZN17)3
